Measurements reported in patent publication US20040106681A1, “Dosage escalation and divided daily dose of anti-depressants to treat neurological disorders” (priority 2002, published 2004).
Structures can show the parent of a compound that is named as a salt.

Assays:
[1] = pretreatment; repeatedly stressed rats; cited from earlier work
[2] = Example 1 gradual dose escalation study in fibromyalgia; assay type: in vivo, human; details: out of approximately 70 treated; weekly escalation 25, 50, 100, 200 mg daily
Excerpt: This study was undertaken to characterize the efficacy of milnacipran in treatment of fibromyalgia syndrome (FMS). A secondary objective was to evaluate the relationship between daily dose administered, frequency of dosing, and efficacy in treatment of FMS. […] In this study, daily dosages were gradually escalated.
Subjects who met the 1990 ACR criteria for fibromyalgia syndrome were eligible for enrollment. Patients recorded baseline symptoms for the first two weeks after washing off anti-depressants, hypnotics and certain other drugs that potentially could interfere with efficacy measurements. […] If the patient tolerated this dosage, they were stepped up to a 50 mg daily dosage for week two, 100 mg for week three, and 200 mg for week four, or a matching placebo. If dose-limiting toxicities were encountered during any given week, the patient was stepped down to the previous week's dosage and maintained at that dosage for the remainder of the study. Subjects continued to take their maximum tolerated dose (up to 200 mg) for an additional 8 weeks. Patients may receive a total of 12 weeks of medication. Dose-limited toxicity is defined as the occurrence of a drug-related grade 3-4 adverse event.
Efficacy was measured using FMS status assessments prior to receiving the first dose and during monthly clinic visits. […]

[3] = Example 2 12-week randomized, double-blind placebo-controlled dose escalation monotherapy trial in FMS; assay type: in vivo, human; details: for Intolerance (dose escalation failures, number of patients): 36 total patients
Description: After an initial period when patients were washed off pain medication, centrally acting stimulants, antidepressants and sedative-hypnotics, a two-week baseline period was begun. […] All patients were escalated over a 4-week period in weekly steps from 25 mg daily, to 50, 100, and finally 200 mg daily, or until dose-limiting toxicity (DLT) was evident. The presence of DLT was evaluated by the study center each week prior to authorizing the patient to step up to the next higher dosage. In the event that DLT was evident, the patient was stabilized at the previously well-tolerated dosage, and remained on this dose for eight weeks at stable dose therapy. Patients who successfully reached the 200 mg daily dose were also then treated for an additional 8 weeks at that dose.
At any give dose level, milnacipran QD patients would receive the full dose of milnacipran in the morning and receive placebo at night. Milnacipran BID patients would receive the same total amount in a split dose given morning and evening. During the study, patents were asked to carry an electronic diary and record pain, fatigue, sleep, and functional information. The custom designed diary captured spontaneous pain data in several ways, including
(1) random daily prompts (the device notified the patient to record their current level of pain 4-5 times per day);
(2) a morning daily prompt querying about the previous 24-hours' pain;
(3) a Friday night weekly report asking about the patient's average pain for the past week.
The electronic assessments were supplemented with traditional pain, mood, and quality of life inventories during clinic visits. The diaries implemented an electronic version of the Gracely anchored logarithmic pain scale. This scale asks patients to choose between “extremely intense,” “very intense,” “intense,” “strong,” “slightly intense,” “barely strong,” “moderate,” “mild,” “very mild,” “weak,” “very weak,” “faint,” and “no pain” sensation to describe their pain.
During the 4th, 8th, and 12th week of treatment, patients visited the clinic, where a number of standard outcome measures including the SF-36, the McGill pain questionnaire, the Beck, the STPI, the fibromyalgia impact questionnaire, and several pain measures were administered. Safety information was also collected at these clinic visits.
The primary endpoint was defined as the change in pain score from baseline to endpoint based on pain scores collected on the patient electronic diary (PED). Endpoint was defined as week twelve for assessments with a single value (such as clinic measures) or the average of scores at weeks 11 and 12 for diary-based outcomes. “Responders” were defined as those patients an improvement in pain score of at least 30%.

[4] = swim stress test, hot plate response latency (thermal nociception threshold); assay type: in vivo, Sprague-Dawley rats
Description: (§1) The treatment groups of rats were the following: (1) stressed—forced swimming in 20 cm of water; (2) sham—swimming in 2-3 cm of water; (3) naive—left undisturbed in cage.
(§2) The rats were tested for thermal nociception threshold by hot plate response latency (in seconds). The rats were tested for muscle hyperalgesia by measuring grip strength (in kg) by algometer.
(§3) Data on hot plate response latency and grip strength was acquired on days 7 and 11.

[5] = swim stress test, grip strength (muscle hyperalgesia); assay type: in vivo, Sprague-Dawley rats
Description: as §1, §2, §3

[6] = pretreatment, 10 or 30 mg/kg/day IP QD days 1-11, swim stress days 8-10
[7] = treatment after swim stress, drug days 5-10, swim stress days 2-4

Row | SMILES | development of cutaneous hyperalgesia [1] | patients who failed to tolerate 200 mg/day [2] | patient global pain score, mean value ([3]; 1-7 scale (1 very much improved, 4 unchanged, 7 very much worse), endpoint, 38 MIL patients, QD and BID pooled) | % Dose Intolerance ([3]; BID dosing) | Intolerance (dose escalation failures, number of patients) ([3]; BID dosing) | difference in Beck scores at endpoint versus placebo ([3]; FMS patients meeting definition of MDE, pooled milnacipran groups, p=0.03) | daily sleep quality scores, improvement versus placebo ([3]; QD and BID, 12-week treatment) | % Dose Intolerance ([3]; QD dosing) | Intolerance (dose escalation failures, number of patients) ([3]; QD dosing) | worsening of sleep quality ([3]; in vivo) | patient electronic diary (PED) pain scores of responders ([3]; milnacipran BID, weeks 2-6, dose escalation) | 24-hour daily pain reported scores, BID versus QD ([3]; throughout 12-week treatment) | swim stress-induced reductions in hot plate latency [4, 6] | swim stress-induced reductions in hot plate response latency [4, 7] | stress-induced reduction in grip strength [5, 6] | reduction in grip strength caused by repeated forced swim stress [5, 7]
1 | CN(C)CCCN1c2ccccc2CCc2ccc(Cl)cc21 [clormipramine] | prevent the development of cutaneous hyperalgesia |  |  |  |  |  |  |  |  |  |  |  |  |  |  | 
2 | CCN(CC)C(=O)[C@@]1(c2ccccc2)C[C@H]1CN (racemic) [milnacipran, (±)-cis-2-(aminomethyl)-N,N-diethyl-1-phenylcyclopropanecarboxamide hydrochloride] |  | 9 | 2.3 | 6% | 2 | significant | No significant improvement | 19% | 7 | no worsening | improvement | BID dosing was more effective than QD dosing | not prevented | did not reverse | prevented | did reverse
3 | CNCCC(Oc1ccc(C(F)(F)F)cc1)c1ccccc1.Cl (racemic) [fluoxetine, (±)-N-methyl-3-phenyl-3-[(α,α,α-trifluoro-p-tolyl)oxy]propylamine hydrochloride] | prevent the development of cutaneous hyperalgesia |  |  |  |  |  |  |  |  |  |  |  |  |  |  | 
